Results: PubChem BioAssay AID179 (DTP/NCI, 2004)
pEC50, pIC50: −log10 of the molar value. Calls of active or inactive are those of the source.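 The calls were made as follows: active = compounds giving half or more protection of infected cells from virus-caused growth loss, again on retest; inactive = the rest.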

Test system: CEM cells HIV-1 protection, formazan growth assay
Assay: NCI AIDS Antiviral Assay
Conditions: for pIC50: measured here: growth of uninfected CEM cells
Procedure, shortened: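 Screen of anti-HIV-1 activity in human CEM cells using a formazan-based growth measurement at five drug concentrations. Hits with 50% or greater protection were repeated, and confirmation required reproducible complete protection.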

SMILES	pEC50	pIC50	outcome
COC(=O)c1cc(C)ccc1C1CN=NC12Cc1ccc(C)cc1C2=O (centres undefined)	3.84	3.74	
Cc1ccccc1-c1c(N)nc(NC#N)nc1C(=O)Nc1ccccc1			inactive
C=CCc1cc(/C(CC)=C(/CC)c2ccc(OCCN(CC)CC)c(CC=C)c2)ccc1OCCN(CC)CC	< 3.70	5.08	
Cc1cn(CC(=O)NCCO)c(=O)[nH]c1=O	< 3.70	< 3.70	
NC(CSCCCS(=O)(=O)O)C(=O)O (centres undefined)	< 3.70	< 3.70	
C1=Cc2nc1c(-c1ccncc1)c1ccc([n-]1)c(-c1ccncc1)c1nc(c(-c3ccncc3)c3ccc([n-]3)c2-c2ccncc2)C=C1.[Zn+2]	< 4.72	< 4.72	
CC(C)P(=S)(OCc1ccccc1)C(C)C	< 3.70	3.90	
c1ccc(N2CCN(c3ccccc3)C2)cc1	< 3.70	< 3.70	
C/C(=C\C(=O)OCCCCCCCC(=O)NC1CCCNC1=O)C[C@@H]1OC[C@H](C/C=C/[C@@H](C)[C@H](C)O)[C@@H](O)[C@H]1O (some centres undefined)			inactive
Cc1cn(C2CC(N=[N+]=[N-])C(COC(=O)CCCCCCCCCCN=[N+]=[N-])O2)c(=O)[nH]c1=O (centres undefined)	7.41	4.54	
N#Cc1nc(/C=C/c2ccccc2)oc1N	< 3.30	3.95	
CC(=O)c1ccc2c(c1)CC1(C2)Cc2cc3c(cc2C1=O)CCC3 (centres undefined)	< 3.70	4.84	
S=C(N/N=C/c1ccccn1)N1CC2CCC(CC2)C1	< 3.70	7.20	
CCOC(=O)C1=NN(c2ccccc2)C(=O)/C1=C\N1C(=O)CC(=O)NC1=S	< 3.70	3.71	
CCCCCCCCCCCC(=O)OCCOCCOCCOCc1ccccc1			inactive
Cc1ccc(S(=O)(=O)NNC(=O)c2sc(-c3nc(C)c(C(=O)NNS(=O)(=O)c4ccc(C)cc4)s3)nc2C)cc1	< 4.09	< 4.09	
C1=C(c2ccccc2)O[C@H](COCc2ccccc2)C(OCc2ccccc2)[C@@H]1OCc1ccccc1 (some centres undefined)			inactive
CCCOC1OC(CS(=O)(=O)O)C(OC(C)=O)C(OC(C)=O)C1OC(C)=O (centres undefined)			inactive
Nn1c(Cc2ccc([N+](=O)[O-])cc2)n[nH]c1=O	< 3.70	< 3.70	
CN(C)CCNC(=O)C1COc2cc(-c3cc(=O)c4ccccc4o3)ccc2O1 (centres undefined)			inactive
CC(=O)Nc1ccc(C(=O)NN2C(=O)C(Cl)C2c2ccc(Cl)cc2)cc1 (centres undefined)	< 3.70	< 3.70	
CC(C)[Si]1(C(C)C)OCC2OC(N3C(=O)NC(=O)C[C@@H]3C(O)c3ccccc3)CC2O[Si](C(C)C)(C(C)C)O1 (some centres undefined)	< 3.70	4.98	

SMILES	pEC50	pIC50	outcome
C/C(=C/OS(=O)(=O)C(F)(F)F)c1ccccc1	< 3.70	4.24	
C[C@H](NC(=O)OC1C2C=CC(O)C1CC2)c1ccccc1 (some centres undefined)	< 3.06	3.11	
NC(=O)C1C(=O)Oc2cccnc21 (centres undefined)			inactive
C=C1[C@H]2O[C@H]2[C@@H](OC(C)=O)[C@@]2(C)[C@@H](OC(C)=O)C[C@@H](OC(=O)CCC)[C@@](C)(O)[C@@H]2[C@@H](OC(C)=O)[C@]2(O)[C@@H](C)C(=O)O[C@H]2[C@H]1Cl	< 3.70	3.76	
Fc1ccc(F)c(C2SCc3nc4ccccc4n32)c1 (centres undefined)			inactive
COc1ccc(OC)c2c(C(=O)O)c(C(C)c3ccccc3)ccc12 (centres undefined)			inactive
O=c1ccc(=O)c2c1c1[nH]c3ccccc3c1c1c(=O)c3ccccc3c(=O)c21	< 3.70	4.73	
Cc1c(-c2ccccc2)c(=O)oc2ccc(Cl)cc12			inactive
Cc1ccc([N+](=O)[O-])cc1N=NC(=O)NNc1cc([N+](=O)[O-])ccc1C	< 3.70	4.49	
O=C1NC2(CCCCC2)C2CCCCC=C12 (centres undefined)			inactive
CCCCCCCCCCCCC(CCCCCCCCCCCC)OP(=O)(O)O			inactive
Oc1ccc(O)c(-n2cccn2)c1	< 4.85	5.14	
Clc1ccccc1-c1nn2c(CCCCCCCCc3nnc4sc(-c5ccccc5Cl)nn34)nnc2s1	< 3.70	3.98	
O=C(O)c1cc[c]([Sb](=[O])([OH])[OH])cc1	4.53	< 3.70	
CC1=CC2=C(C(N)=O)C(=O)OC2(C)C(c2ccccc2)C1 (centres undefined)	< 3.70	< 3.70	
O=C1C(N=Nc2ccc(Br)cc2)Sc2nc3ccccc3n21 (centres undefined)	< 3.70	< 3.70	
O=c1cn[nH]c2c(Br)cccc12	< 3.32	3.56	
Cc1ccc(/C=C2\CCCC(CN3CCCCC3)C2=O)cc1 (centres undefined)	< 3.70	6.14	
CCCSP(SCCC)SCCC			inactive
CC(=O)O[C@@H]1[C@H]2O[C@H]2[C@H]2O[C@@]2(COC(=O)c2ccccc2)[C@H]1OC(C)=O	< 3.70	4.04	
O=C(/C=C/c1ccc(O)cc1)c1cc(O)cc(O)c1	< 3.70	4.68	
COc1ccc(C(=C(I)c2ccccc2)c2ccc(OC)cc2)cc1	< 3.70	3.74	

SMILES	pEC50	pIC50	outcome
N/C(=N\N=C\c1cccs1)NO	< 3.15	< 3.15	
O=C1CSC(c2ccc(Cl)cc2Cl)N1c1ccc(Oc2ccc(Cl)cc2)c(Cl)c1 (centres undefined)	< 4.00	4.58	
COc1ccc(N2C(=O)C3c4[nH]c5ccccc5c4C4CCCCCCCC4C3C2=O)cc1 (centres undefined)	< 3.70	4.09	
Cc1c(NC(=O)C(=O)N=NC(=O)c2ccncc2)c(O)c2ccccc2c1O			inactive
Cc1ccc(N2C(=O)/C(=C\c3ccc(N(CCC#N)CCC#N)cc3)N=C2COc2ccccc2)cc1	< 4.42	< 4.42	
O=C1CCCN(c2ccccc2)N1	< 2.85	< 2.85	
Cc1ccc(Cl)c2c(=O)c3ccc([N+](=O)[O-])cc3sc12	< 3.82	< 3.82	
O=C1CCS(=O)(=O)O1	< 2.74	< 2.74	
O=c1[nH]c2cc3[nH]c(=O)c(=O)[nH]c3cc2[nH]c1=O	< 3.70	< 3.70	
NC(=S=O)C(F)(F)C(F)(F)C(F)(F)F	< 3.98	4.05	
C=CCC1(C(=O)OC)CCC/C(=N\O)C1 (centres undefined)	< 4.19	< 4.19	
CN(C)P(CCP(CCP(N(C)C)N(C)C)c1ccccc1)N(C)C	< 3.21	< 3.21	
COC(=O)C(=O)C(C(=O)C(=O)Nc1ccc([N+](=O)[O-])cc1[N+](=O)[O-])c1nc2ccc([N+](=O)[O-])cc2[nH]c1=O (centres undefined)	< 3.33	3.85	
[C-]#[O+].[C-]#[O+].[C-]#[O+].[C-]#[O+].[C-]#[O+].[C-]#[O+].[Fe].[Fe].c1ccc([P-]c2ccccc2[P-]c2ccccc2)cc1 (centres undefined)	< 5.74	< 5.74	
O=c1[nH]nc(Cc2ccccc2)n1C1CC1	< 3.70	< 3.70	
CC(=O)N1C(OC(C)C)CC(C)N1c1ccccc1 (centres undefined)	< 3.70	< 3.70	
CC1=CSC2=NCCN12	< 3.70	< 3.70	
COc1ccc(Cn2nc(OCc3ccccn3)c3cc([N+](=O)[O-])ccc32)cc1	< 3.70	< 3.70	
Cc1ccc(C(=O)/C=C/c2ccc(Cl)c(Cl)c2)cc1	< 4.75	< 4.75	
C[N+](C)(C)CC(=O)N/N=C(\Cc1nc2ccc([N+](=O)[O-])cc2[nH]c1=O)C(=O)Nc1nc2ccc([N+](=O)[O-])cc2s1	< 4.37	< 4.37	
